Data reported in ChEMBL document CHEMBL5505992, “Novel membrane-targeting isoxanthohumol-amine conjugates for combating methicillin-resistant Staphylococcus aureus (MRSA) infections” (Eur J Med Chem, 2024).
In brackets after ≈: the same amount, converted by molar mass. Activity calls are given as the source filed them. No cut-off for these calls is given here.

Columns and labels:
[1] = test system: Staphylococcus aureus; experiment: Antibacterial activity against methicillin-resistant Staphylococcus aureus clinical isolate MRSA-13 measured after 16 to 18 hrs by CLSI method; assay type: functional; conditions: time 16-18 hrs
[2] = test system: Escherichia coli; experiment: Antibacterial activity against Escherichia coli ATCC25922 measured after 16 to 18 hrs by CLSI method; assay type: functional; conditions: time 16-18 hrs
[3] = Hemolytic activity in sheep erythrocytes incubated for 1 hr by absorbance based analysis; assay type: toxicity, cell-based, Ovis aries, Erythrocyte
[4] = test system: Staphylococcus aureus; experiment: Antibacterial activity against methicillin-resistant Staphylococcus aureus clinical isolate MRSA-20 measured after 16 to 18 hrs by CLSI method; assay type: functional; conditions: time 16-18 hrs
[5] = test system: Staphylococcus aureus; experiment: Antibacterial activity against methicillin-resistant Staphylococcus aureus clinical isolate MRSA-17 measured after 16 to 18 hrs by CLSI method; assay type: functional; conditions: time 16-18 hrs
[6] = test system: Staphylococcus aureus; experiment: Antibacterial activity against methicillin-resistant Staphylococcus aureus clinical isolate MRSA-23 measured after 16 to 18 hrs by CLSI method; assay type: functional; conditions: time 16-18 hrs
[7] = test system: Staphylococcus aureus; experiment: Antibacterial activity against methicillin-resistant Staphylococcus aureus clinical isolate MRSA-22 measured after 16 to 18 hrs by CLSI method; assay type: functional; conditions: time 16-18 hrs
[8] = test system: Staphylococcus aureus; experiment: Antibacterial activity against methicillin-resistant Staphylococcus aureus clinical isolate MRSA-14 measured after 16 to 18 hrs by CLSI method; assay type: functional; conditions: time 16-18 hrs
[9] = test system: Staphylococcus aureus; experiment: Antibacterial activity against methicillin-resistant Staphylococcus aureus clinical isolate MRSA-11 measured after 16 to 18 hrs by CLSI method; assay type: functional; conditions: time 16-18 hrs
[10] = test system: Staphylococcus aureus; experiment: Antibacterial activity against methicillin-resistant Staphylococcus aureus clinical isolate MRSA-16 measured after 16 to 18 hrs by CLSI method; assay type: functional; conditions: time 16-18 hrs
[11] = test system: Staphylococcus aureus; experiment: Antibacterial activity against Staphylococcus aureus ATCC 29213 measured after 16 to 18 hrs by CLSI method; assay type: functional; conditions: time 16-18 hrs
[12] = test system: Staphylococcus aureus; experiment: Antibacterial activity against methicillin-resistant Staphylococcus aureus clinical isolate MRSA-18 measured after 16 to 18 hrs by CLSI method; assay type: functional; conditions: time 16-18 hrs
[13] = test system: Staphylococcus aureus; experiment: Antibacterial activity against methicillin-resistant Staphylococcus aureus clinical isolate MRSA-21 measured after 16 to 18 hrs by CLSI method; assay type: functional; conditions: time 16-18 hrs
[14] = Selectivity index, ratio of HC50 for hemolytic activity in sheep erythrocytes to MIC for antibacterial activity against Staphylococcus aureus ATCC 29213; assay type: toxicity, cell-based; conditions: read-out: Selectivity Index
[15] = test system: Cell membrane; experiment: Induction of cytoplasmic membrane depolarization in methicillin-resistant Staphylococcus aureus clinical isolate MRSA-16 assessed as increase in fluorescence intensity at 32 ug/ml measured every 2 mins for 20 mins by SYTOX green staining based analysis; assay type: cell membranes; conditions: dose 32.0 µg/ml
[16] = test system: Cell membrane; experiment: Induction of cell membrane depolarization in methicillin-resistant Staphylococcus aureus clinical isolate MRSA-16 assessed as fold increase in fluorescence intensity at 32 ug/ml measured every 2 mins for 20 mins by DISC3(5) staining based analysis; assay type: cell membranes; conditions: dose 32.0 µg/ml
[17] = test system: Cell membrane; experiment: Induction of cytoplasmic membrane depolarization in methicillin-resistant Staphylococcus aureus clinical isolate MRSA-16 assessed as fold increase in fluorescence intensity at 32 ug/ml measured every 2 mins for 20 mins by SYTOX green staining based analysis; assay type: cell membranes; conditions: dose 32.0 µg/ml

Row | Compound | MIC [1] [µg/mL] | MIC [2] [µg/mL] | HC50 at 1 h [3] [µg/mL] | MIC [4] [µg/mL] | MIC [5] [µg/mL] | MIC [6] [µg/mL] | MIC [7] [µg/mL] | MIC [8] [µg/mL] | MIC [9] [µg/mL] | MIC [10] [µg/mL] | MIC [11] [µg/mL] | MIC [12] [µg/mL] | MIC [13] [µg/mL] | selectivity ratio [14] | Activity [15] | fold change (FC) [16] | fold change (FC) [17]
1 | COc1cc(OCCCN2CCN(C)CC2)c(CC=C(C)C)c2c1C(=O)CC(c1ccc(OCCCN3CCN(C)CC3)cc1)O2 (stereo unspecified) | 64 (≈ 101 µM) | > 128 | > 1280 | 64 (≈ 101 µM) | 32 (≈ 50.4 µM) | 64 (≈ 101 µM) | 32 (≈ 50.4 µM) | 64 (≈ 101 µM) | 32 (≈ 50.4 µM) | 64 (≈ 101 µM) | 64 (≈ 101 µM) | 64 (≈ 101 µM) | 32 (≈ 50.4 µM) | > 20 |  |  | 
2 | CC[C@H](C)[C@H](NC(=O)CN)C(=O)NCC(=O)N[C@@H](C)C(=O)N[C@H](C(=O)N[C@@H](CC(C)C)C(=O)N[C@@H](CCCCN)C(=O)N[C@H](C(=O)N[C@@H](CC(C)C)C(=O)N[C@H](C(=O)N[C@H](C(=O)NCC(=O)N[C@@H](CC(C)C)C(=O)N1CCC[C@H]1C(=O)N[C@@H](C)C(=O)N[C@@H](CC(C)C)C(=O)N[C@H](C(=O)N[C@@H](CO)C(=O)N[C@@H](Cc1c[nH]c2ccccc12)C(=O)N[C@H](C(=O)N[C@@H](CCCCN)C(=O)N[C@@H](CCCNC(=N)N)C(=O)N[C@@H](CCCCN)C(=O)N[C@@H](CCCNC(=N)N)C(=O)N[C@@H](CCC(N)=O)C(=O)N[C@@H](CCC(N)=O)C(N)=O)[C@@H](C)CC)[C@@H](C)CC)[C@@H](C)O)[C@@H](C)O)C(C)C)C(C)C |  |  |  |  |  |  |  |  |  |  |  |  |  |  | Active | 4.4 | 7
3 | COc1cc(OCCCCCN2CCSCC2)c(CC=C(C)C)c2c1C(=O)CC(c1ccc(OCCCCCN3CCSCC3)cc1)O2 (stereo unspecified) | > 128 | > 128 | > 640 | > 128 | > 128 | > 128 | > 128 | > 128 | > 128 | > 128 | 32 (≈ 45.9 µM) | > 128 | > 128 | > 20 |  |  | 
4 | COc1cc(OCCCN2CCCCC2)c(CC=C(C)C)c2c1C(=O)CC(c1ccc(OCCCN3CCCCC3)cc1)O2 (stereo unspecified) | > 128 | > 128 | 467 | > 128 | > 128 | > 128 | > 128 | > 128 | > 128 | 32 (≈ 52.9 µM) | 64 (≈ 106 µM) | > 128 | > 128 | 7.3 |  |  | 
5 | COc1cc(OCCCN2CCC(C)CC2)c(CC=C(C)C)c2c1C(=O)CC(c1ccc(OCCCN3CCC(C)CC3)cc1)O2 (stereo unspecified) | 16 (≈ 25.3 µM) | > 128 | > 1280 | 16 (≈ 25.3 µM) | 16 (≈ 25.3 µM) | 32 (≈ 50.6 µM) | 16 (≈ 25.3 µM) | 16 (≈ 25.3 µM) | 16 (≈ 25.3 µM) | 16 (≈ 25.3 µM) | 16 (≈ 25.3 µM) | 16 (≈ 25.3 µM) | 16 (≈ 25.3 µM) | > 80 |  |  | 
6 | COc1cc(OCCCN2CCCC(C)C2)c(CC=C(C)C)c2c1C(=O)CC(c1ccc(OCCCN3CCCC(C)C3)cc1)O2 (stereo unspecified) | 16 (≈ 25.3 µM) | > 128 | > 1280 | 16 (≈ 25.3 µM) | 8 (≈ 12.6 µM) | 32 (≈ 50.6 µM) | 16 (≈ 25.3 µM) | 16 (≈ 25.3 µM) | 32 (≈ 50.6 µM) | 16 (≈ 25.3 µM) | 16 (≈ 25.3 µM) | 16 (≈ 25.3 µM) | 32 (≈ 50.6 µM) | > 80 |  |  | 
7 | COc1cc(OCCCCCN2CCC(C)CC2)c(CC=C(C)C)c2c1C(=O)CC(c1ccc(OCCCCCN3CCC(C)CC3)cc1)O2 (stereo unspecified) | 8 (≈ 11.6 µM) | > 128 | > 1280 | 8 (≈ 11.6 µM) | 8 (≈ 11.6 µM) | 8 (≈ 11.6 µM) | 8 (≈ 11.6 µM) | 8 (≈ 11.6 µM) | 4 (≈ 5.81 µM) | 4 (≈ 5.81 µM) | 8 (≈ 11.6 µM) | 8 (≈ 11.6 µM) | 4 (≈ 5.81 µM) | > 160 |  |  | 
8 | CCCC[N+](C)(CCCC)CCCCOc1ccc(C2CC(=O)c3c(OC)cc(OCCCC[N+](C)(CCCC)CCCC)c(CC=C(C)C)c3O2)cc1.[I-].[I-] (stereo unspecified) | 0.5 | 32 | > 1280 | 0.5 | 0.25 | 0.5 | 1 | 0.5 | 0.5 | 0.25 | 0.5 | 0.5 | 0.5 | > 2640 |  |  | 
